“Also recorded” adds a separate entry of the source.
How the values were obtained:
human primary cells = experiment: BioMAP Safety and Toxicology screening profile; assay type: cell-based
Procedure: The BioMAP Toxicity Screening Profile was performed as described previously.

[1] = test system: V-ATPase-dependent proton transport in HEK293T cells; experiment: Proton pumping assay, FITC-Dextran-loaded lysosomes; assay type: cell-based, human; conditions: 1 h treatment, listed as BafA1
Excerpt: Figure 4. […] (A) Model of the reversible assembly of V-ATPase. Cytosolic V1 subunits are depicted in blue and membrane Vo subunits in purple. Upon V-ATPase assembly, ATP is hydrolyzed to ADP accompanied by proton (H^+) pumping and luminal acidification (decrease in pH) (Created with BioRender). […] The amount of subunit B2 present in the membrane fraction indicates the amount of assembled V-ATPase. A representative Western blot is presented. […] Cells were mechanically lysed, and a fraction containing FITC-Dextran-loaded lysosomes was isolated by sedimentation centrifugation. Fluorescence was measured over time to assess pH-dependent quenching following addition of 1 mM magnesium-ATP (predetermined). […] Representative of 5 individual experiments with n = 3 for each is presented (mean ± SD) (D) Mammalian V-ATPase activity measured in the absence and presence of 1 μM 249C and 1 μM BafA1. Data shown are mean ± SD; n = 3. […]
4 × 10^6 HEK 293T cells were plated in 10-cm plates. […] Sample fluorescence was excited at 490 nm, and emission fluorescence at 520 nm was measured continuously in BioTek plate reader (Synergy) using Gen5 software (version 3.05). After initial fluorescence stabilization, 1 mM ATP and 2 mM MgCl2 were added to initiate ATPase activity and proton pumping into the lysosomes, which causes quenching of FITC in the lysosomal lumen. […]

hERG [2] = molecular target: T1, hERG (Homo sapiens, UniProt Q12809); experiment: hERG fluorescence polarization assay; conditions: human
T1 sequence (Q12809 whole entry): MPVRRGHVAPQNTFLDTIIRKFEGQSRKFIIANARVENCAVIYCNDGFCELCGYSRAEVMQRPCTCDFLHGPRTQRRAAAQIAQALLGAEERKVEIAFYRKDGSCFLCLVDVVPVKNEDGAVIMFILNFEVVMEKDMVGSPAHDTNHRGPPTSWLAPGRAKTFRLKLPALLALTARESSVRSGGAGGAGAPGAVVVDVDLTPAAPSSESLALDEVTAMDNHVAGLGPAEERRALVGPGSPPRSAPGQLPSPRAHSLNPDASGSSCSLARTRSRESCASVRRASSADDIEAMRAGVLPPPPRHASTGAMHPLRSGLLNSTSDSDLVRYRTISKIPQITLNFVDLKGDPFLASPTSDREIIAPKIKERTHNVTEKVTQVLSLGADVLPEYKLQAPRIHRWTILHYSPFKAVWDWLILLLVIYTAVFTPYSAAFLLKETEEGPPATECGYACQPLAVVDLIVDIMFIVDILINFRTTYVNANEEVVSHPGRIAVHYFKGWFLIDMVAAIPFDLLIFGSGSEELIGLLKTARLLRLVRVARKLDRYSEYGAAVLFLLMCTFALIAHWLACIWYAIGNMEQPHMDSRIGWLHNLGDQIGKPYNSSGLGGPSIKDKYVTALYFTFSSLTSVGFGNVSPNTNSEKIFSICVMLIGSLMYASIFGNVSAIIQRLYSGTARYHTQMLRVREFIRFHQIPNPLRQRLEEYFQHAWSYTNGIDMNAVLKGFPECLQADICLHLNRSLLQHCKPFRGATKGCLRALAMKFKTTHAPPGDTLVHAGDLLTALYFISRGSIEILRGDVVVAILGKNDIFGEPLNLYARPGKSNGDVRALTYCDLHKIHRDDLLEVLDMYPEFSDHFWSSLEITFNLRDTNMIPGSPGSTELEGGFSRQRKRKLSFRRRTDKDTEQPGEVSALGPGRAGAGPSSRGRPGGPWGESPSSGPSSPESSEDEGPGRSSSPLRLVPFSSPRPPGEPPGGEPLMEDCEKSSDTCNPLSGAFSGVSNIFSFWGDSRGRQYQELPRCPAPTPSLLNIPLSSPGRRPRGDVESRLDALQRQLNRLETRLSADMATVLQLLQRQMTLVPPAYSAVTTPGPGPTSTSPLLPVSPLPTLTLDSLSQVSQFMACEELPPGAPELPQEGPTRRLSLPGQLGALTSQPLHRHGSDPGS

[3] = molecular target: T2, mammalian V-ATPase purified from pig kidneys (Sus scrofa, UniProt Q9TVC1); experiment: Biochemical V-ATPase (ATP hydrolysis) assay; conditions: concentrations as low as 1 μM
T2 construct: the entire V-ATPase complex (800 kDa) was purified as described previously from porcine kidneys; from tissue; host or cells: porcine kidney
T2 sequence (Q9TVC1 whole entry): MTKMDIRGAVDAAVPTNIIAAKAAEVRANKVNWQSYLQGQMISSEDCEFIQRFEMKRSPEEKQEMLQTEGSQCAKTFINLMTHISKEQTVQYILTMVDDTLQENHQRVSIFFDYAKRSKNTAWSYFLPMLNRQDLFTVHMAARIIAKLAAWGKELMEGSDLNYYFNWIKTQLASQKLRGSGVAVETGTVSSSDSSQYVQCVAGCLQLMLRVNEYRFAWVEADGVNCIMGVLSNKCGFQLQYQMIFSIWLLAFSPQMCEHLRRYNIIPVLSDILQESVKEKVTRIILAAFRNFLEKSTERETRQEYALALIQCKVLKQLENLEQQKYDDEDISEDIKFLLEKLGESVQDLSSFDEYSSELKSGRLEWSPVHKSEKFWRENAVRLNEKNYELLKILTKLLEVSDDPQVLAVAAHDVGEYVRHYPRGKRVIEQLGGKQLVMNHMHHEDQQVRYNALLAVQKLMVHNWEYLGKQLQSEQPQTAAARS
T2 sequence (Q29048 whole entry partner): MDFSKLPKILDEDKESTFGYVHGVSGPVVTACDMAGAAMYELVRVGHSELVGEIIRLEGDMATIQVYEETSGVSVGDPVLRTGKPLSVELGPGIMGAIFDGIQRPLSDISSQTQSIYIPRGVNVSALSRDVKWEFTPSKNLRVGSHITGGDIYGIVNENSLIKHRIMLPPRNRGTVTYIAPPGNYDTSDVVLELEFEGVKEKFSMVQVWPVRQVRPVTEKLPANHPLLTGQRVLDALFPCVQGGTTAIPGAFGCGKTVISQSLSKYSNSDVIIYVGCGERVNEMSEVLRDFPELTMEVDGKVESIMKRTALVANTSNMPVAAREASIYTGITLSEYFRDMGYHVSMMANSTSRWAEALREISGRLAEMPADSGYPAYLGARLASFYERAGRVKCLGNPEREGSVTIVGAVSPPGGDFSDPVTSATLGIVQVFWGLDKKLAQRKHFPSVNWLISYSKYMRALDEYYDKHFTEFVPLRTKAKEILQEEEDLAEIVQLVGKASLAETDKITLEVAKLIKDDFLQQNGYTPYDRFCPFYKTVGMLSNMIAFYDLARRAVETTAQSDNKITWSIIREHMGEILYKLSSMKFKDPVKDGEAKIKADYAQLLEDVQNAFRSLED
Procedure: V-ATPase was purified as described previously from yeast[82] using the detergent dodecylmaltoside and porcine kidney[83] using the detergent glycol-diosgenin. ATPase assays with purified V-ATPase were performed as described previously. 249C (mammalian: 0.1, 1, 10, 100 μM and yeast: 5, 10 and 100 μM) or BafA1 (1 μM) were added to the reaction and compared with a negative control to which only DMSO was added. Enzyme-coupled ATPase biochemical activity assays were performed in a 96-well plate as described previously.

Yeast V-ATPase = molecular target: T3, Yeast V-ATPase (Saccharomyces cerevisiae, UniProt P25515+P41807); experiment: Biochemical V-ATPase (ATP hydrolysis) assay
T3 construct: V-ATPase was purified as described previously from yeast[82] using the detergent dodecylmaltoside; endogenous in cells; host or cells: yeast
T3 sequence (P25515 whole entry): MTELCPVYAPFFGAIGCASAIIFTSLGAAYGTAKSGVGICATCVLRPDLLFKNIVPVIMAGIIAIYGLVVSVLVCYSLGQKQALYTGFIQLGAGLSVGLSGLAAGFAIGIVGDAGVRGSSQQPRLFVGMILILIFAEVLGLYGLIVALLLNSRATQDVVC
T3 sequence (P41807 2-478): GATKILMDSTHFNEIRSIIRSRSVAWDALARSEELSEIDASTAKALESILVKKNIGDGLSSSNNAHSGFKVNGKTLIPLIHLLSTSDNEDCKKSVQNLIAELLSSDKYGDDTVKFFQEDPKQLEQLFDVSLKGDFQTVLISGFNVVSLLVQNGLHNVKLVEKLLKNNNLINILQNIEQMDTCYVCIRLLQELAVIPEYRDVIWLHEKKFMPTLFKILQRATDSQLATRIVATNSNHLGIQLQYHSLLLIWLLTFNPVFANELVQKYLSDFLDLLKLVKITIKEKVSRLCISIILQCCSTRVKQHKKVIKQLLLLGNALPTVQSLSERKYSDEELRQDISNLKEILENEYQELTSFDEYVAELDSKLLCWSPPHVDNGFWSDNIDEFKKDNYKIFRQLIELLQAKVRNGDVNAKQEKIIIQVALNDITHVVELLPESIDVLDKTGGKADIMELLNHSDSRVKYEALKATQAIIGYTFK
Procedure: V-ATPase was purified as described previously from yeast[82] using the detergent dodecylmaltoside and porcine kidney[83] using the detergent glycol-diosgenin. ATPase assays with purified V-ATPase were performed as described previously. 249C (mammalian: 0.1, 1, 10, 100 μM and yeast: 5, 10 and 100 μM) or BafA1 (1 μM) were added to the reaction and compared with a negative control to which only DMSO was added. Enzyme-coupled ATPase biochemical activity assays were performed in a 96-well plate as described previously. […]
appears to cause accumulation of high molecular weight entities. Representative of 3 independent experiments. […]
observed. Data shown are mean ± SD ( n = 3) Two-tailed student’s t-test (C) ATP-dependent fluorescence quenching in yeast (me an ± SD; n = 3 ) Two-t ailed student’s t-test (D) SDS PAGE over th e cou rse of recombinant human ATP6V1H protein purification. 1. Mark ers; 2. Total l ysate (GST-fusion […]); 3. Soluble lysate; 4.
GSTrap flow-through; 5. GSTrap elute; 6. Post thrombin cleavage (target 54 kDa, GST 25 kDa); 7. Subtractive GSTrap flow -through; 8. Markers; 9. Final sample, 1 µg protein load. Repres entative of 2 independent ex periments. (E) Structure of biotin- 249C. […]
interfere with V-ATPas e binding. ( F) Experimental schematic of Bio-la yer inferometr y (B L I) .
(1 picture or pasted object on this page, not shown here)

[4] = molecular target: human ether-à-go-go-related gene (hERG) (Homo sapiens, UniProt Q12809); experiment: hERG fluorescence polarization assay; conditions: at 30 μM
Sequence of human ether-à-go-go-related gene (hERG) (Q12809 whole entry): as the sequence (Q12809 whole entry) above

hERG [5] = molecular target: T1, hERG; experiment: in vitro

CO/C1=C\C(C)=C\[C@@H](C)[C@@H](O)[C@@H](C)C/C(C)=C/C=C/[C@H](OC)[C@@H]([C@@H](C)[C@@H](O)[C@H](C)[C@@]2(O)C[C@@H](O)[C@H](C)[C@@H](C(C)C)O2)OC1=O [Bafilomycin A1, reference compound] was tested, and the “toxicity categories / adverse events in BioMAP safety profiling” value (human primary cells; over 100 biomarker readouts) was 2, the “V-ATPase-dependent proton transport (ATP-dependent fluorescence quenching)” value [1] was “inhibited V-ATPase-dependent proton transport; also recorded: ATP-dependent fluorescence quenching was not observed” and the inhibition at 30 µM (hERG [2]) was 35%. The “ATP hydrolysis of intact mammalian V-ATPase” value [3] was “blocked ATP hydrolysis” and the “Yeast V-ATPase activity” value (Yeast V-ATPase) was “modest inhibition”.

In the case of CN(CCCCCCNc1ccnc2cc(Cl)ccc12)CCCCCCNc1ccnc2cc(Cl)ccc12 [DC661], the “Percent inhibition of hERG” value [4] is reported as 100%.

With CCN(CCO)CCCC(C)Nc1ccnc2cc(Cl)ccc12 (stereo not shown) [HCQ, hydroxychloroquine] the inhibition at 30 µM (hERG [5]) was ~60%, the “BioMAP Screening Profile 3C:SRB” value (human primary cells; human, 1000 nM) was 0 and the “BioMAP Screening Profile 4H:SRB” value (human primary cells; human, 1000 nM) was 0. For the same compound, the “BioMAP Screening Profile BE3C:SRB” value (human primary cells; human, 1000 nM) was 0, the “BioMAP Screening Profile BF4T:SRB” value (human primary cells; human, 1000 nM) was 0 and the “BioMAP Screening Profile BT:PBMC Cytotoxicity” value (human primary cells; human, 1000 nM) was 0. For the same compound, the “BioMAP Screening Profile CASM3C:SRB” value (human primary cells; human, 1000 nM) was 0, the “BioMAP Screening Profile Cytotoxicity” value (human primary cells; human, 1000 nM) was 0 and the “BioMAP Screening Profile HDF3CGF:SRB” value (human primary cells; human, 1000 nM) was 0. The “BioMAP Screening Profile KF3CT:SRB” value (human primary cells; human, 1000 nM) was 0, the “BioMAP Screening Profile LPS:SRB” value (human primary cells; human, 1000 nM) was 0 and the “BioMAP Screening Profile MyoF:SRB” value (human primary cells; human, 1000 nM) was 0. The “BioMAP Screening Profile SAg:PBMC Cytotoxicity” value (human primary cells; human, 1000 nM) was 0, the “BioMAP Screening Profile SAg:SRB” value (human primary cells; human, 1000 nM) was 0 and the “BioMAP Screening Profile lMphg:SRB” value (human primary cells; human, 1000 nM) was 0. The “BioMAP Screening Profile lMphg:SRB-Mphg” value (human primary cells; human, 1000 nM) was 0.
